Results taken from patent publication US20130052280A1, “USE OF THEBROMINE FOR LOWERING CENTRAL BLOOD PRESSURE” (priority 2010, published 2013).

Columns and labels:
[1] = tested on: untreated prehypertensive males and females; test: 24-hour ambulatory blood pressure and heart rate (peripheral BP at the brachial artery), randomised controlled cross-over study; type: in vivo, humans; conditions: for some time after ingestion
Procedure: In a randomised controlled cross-over study with 42 untreated prehypertensive males and females the effect of cocoa-containing drinks either high in polyphenols or high in polyphenols and theobromine was assessed on blood pressure (BP).
The subjects consumed for 3 weeks daily (in the morning before breakfast) 200 ml acidified dairy drink as in table 1, with added to that 1) none (control drink), 2) 3.65 g cocoa powder (Acticoa, Barry-Callebaut) containing 500 mg polyphenols and 79 mg theobromine (amount in product specification Acticoa) and 3) 5 g cocoa powder containing 500 mg polyphenols and 79 mg theobromine plus added thereto 918 mg pure theobromine (Fagron, Ph. […]
Peripheral BP was measured by 24-hours ambulatory BP at the brachial artery, while central blood pressure was measured by applanation tonometry at the radial artery, using a transfer function to estimate central pulse wave forms, systolic and diastolic BP (SBP and DBP, respectively), pulse pressure (SBP-DBP) and augmentation index. […]
An automatic ambulatory BP monitor (Spacelabs 90207, Spacelabs In., Redmond, Wash., USA) was placed on the non-dominant arm in all subjects. Systolic and diastolic BP and heart rate (HR) were recorded over at least 24 h. […]
Baseline data was expressed as mean plus standard deviation for variables with a parametric distribution and median plus range for variables with a skewed distribution. […]

[2] = tested on: untreated prehypertensive males and females; test: Central blood pressure by applanation tonometry at the radial artery (pulse wave analysis), randomised controlled cross-over study; type: in vivo, humans
Procedure: In a randomised controlled cross-over study with 42 untreated prehypertensive males and females the effect of cocoa-containing drinks either high in polyphenols or high in polyphenols and theobromine was assessed on blood pressure (BP). The subjects consumed for 3 weeks daily (in the morning before breakfast) 200 ml acidified dairy drink as in table 1, with added to that 1) none (control drink), 2) 3.65 g cocoa powder (Acticoa, Barry-Callebaut) containing 500 mg polyphenols and 79 mg theobromine (amount in product specification Acticoa) and 3) 5 g cocoa powder containing 500 mg polyphenols and 79 mg theobromine plus added thereto 918 mg pure theobromine (Fagron, Ph. […] Peripheral BP was measured by 24-hours ambulatory BP at the brachial artery, while central blood pressure was measured by applanation tonometry at the radial artery, using a transfer function to estimate central pulse wave forms, systolic and diastolic BP (SBP and DBP, respectively), pulse pressure (SBP-DBP) and augmentation index. […] Augmentation index (AIx), defined as the ratio of augmentation to central pulse pressure, is expressed as a percentage: AIx=(ΔP/PP)×100, where P is pressure and PP is pulse pressure. […] Pulse pressure amplification (PPA) is expressed as the ratio of […]: PPA=PPP/CPP. […]

## Cn1cnc2c1c(=O)[nH]c(=O)n2C [theobromine, 3,7-dimethylxanthine]
[1]
  heart rate after ingestion of the effective amount (in words): elevated
  peripheral BP after ingestion of the effective amount (in words): elevated
[2]; ingestion in an effective amount
  reduction of central blood pressure compared to when theobromine is not ingested: at least 2 mmHg
[2]; single daily dose of 1000 mg theobromine, p=0.003
  reduction of central BP: 3.3%
